{"source": "patent US12172976B2", "about": "“Delocalized lipophilic cation compounds and methods of use thereof” (The Board of Trustees of the Leland Stanford Junior …, priority 2019, dated 2024)", "key": {"[1]": {"assay": "Fluorescence quantum yield against Rhodamine 6G", "assay_type": "physicochemical", "conditions": "in ethanol, Rhodamine 6G as reference", "method": "The quantum yield of compounds (1) through (11) was measured in ethanol using Rhodamine 6G as a reference.\nThe fluorescence quantum yields of the compounds were determined using the formula (ϕ=ϕs(Fx/Fs) (As/Ax), where ϕ is quantum yield, F is the integrated area under the corrected emission spectrum, and A is the absorbance at the excitation wavelength; the subscripts x and s refer to F16s and the standard, respectively. Rhodamine 6G (OF 95%) in ethanol was used as the standard. All compounds and Rhodamine 6G were dissolved in ethanol in 5 different concentrations with the absorbance lower than 0.1 at 425 nm. The corresponding 5 different fluorescences of the compounds and Rhodamine 6G were excited at 425 nm and the emission spectra from 450 nm to 650 nm were obtained for the following integrated area measurement. All data was analyzed using Origin Pro 9.0 software (OriginLab, Northampton, Massachusetts, USA) to get the compounds' final quantum yield."}, "[2]": {"assay": "Photostability under continuous excitation", "assay_type": "physicochemical", "conditions": "10 μM in water, continuously excited for 50 mins", "method": "A 75 W Xenon arc lamp (Hamamatsu, San Jose, California, USA) with 420-470 nm bond pass filter (MF445-45, Thorlabs, Newton, New Jersey, USA) was used as the light source for the F16 derivatives, Rhodamine 6G, and Mitotracker® Green. Analogously, a 540-580 nm bond pass filter (MF559-34, Thorlabs, Newton, New Jersey, USA) was used to excite Mitotracker Red. All the dyes were dissolved in water at a 10 μM concentration in 700 μL micro quartz cuvettes (10 mm, Sigma-Aldrich, St. Louis, MO, USA). They were continuously excited for 50 mins. During this period, the fluorescence intensity was measured every 5 mins at 525 nm (F16s, Rhodamine 6G, Mitotracker Green) or 600 nm (Mitotracker Red). Relative fluorescence intensity change was monitored over time."}, "[3]": {"tested_on": "bladder cancer T24 cells, non-small cell lung cancer (NSCLC) H838 cells, normal HIN-3T3 cells", "assay": "In vitro cytotoxicity, anti-tumor activity and selectivity against normal cells", "assay_type": "cell-based", "conditions": "Homo sapiens, NCI-H838, 72 h, 3 days", "method": "(§1) The cytotoxicity of compounds (1) through (11) was tested in vitro with bladder cancer T24 cells, non-small cell lung cancer (NSCLC) H838 cells, and normal HIN-3T3 cells (FIG. 4). All test cell lines were incubated in 96-well plates overnight at a density of 3000 cells/well. The culture medium was replaced with 200 μL of culture medium, into which the testing compound was dispersed at various concentrations (1.95-500 μM). After incubating for 3 days, the viable cell numbers were checked and directly counted under microscopy (10×). A minimum of 1 mm×1 mm area was counted from each of at least three widely separated regions of cell culture. The cell proliferation rate was calculated by the following formula: cell proliferation rate (%)=(average cell number of sample wells/average cell number of control wells)×100%. The intact culture medium was evaluated as a control."}, "[4]": {"assay": "UV absorbance of the compounds", "assay_type": "physicochemical", "conditions": "31 μM in water", "method": "The absorbance and fluorescence of delocalized lipophilic cation compounds (1) through (11) were measured. UV absorbance of the compounds was recorded on an Agilent 8453 UV spectrophotometer at a concentration of 31 μM in water. Fluorescence was recorded on a Fluoromax-3 spectrafluorometer (Jobin Yvon) at a concentration of 7.8 μM in water."}, "[5]": {"tested_on": "mitochondria", "assay": "Mitochondrial targeting, fluorescence microscopy of stained cells", "assay_type": "cell-based", "conditions": "NIH-353, H838, and T24 cell lines", "method": "The mitochondrial targeting properties of compounds (1) through (11) were tested. 3 μM compounds were added to cells grown in a MatTek glass-bottom culture dishes (Ashland, Massachusetts) for 1 h and washed with PBS (phosphate-buffered saline) three times. After replacement of the medium, cells were imaged using a fluorescent microscope (Zeiss) with a 63× oil or 20× objective lens (excited in the GFP channel).\nMitotracker@ Red (Molecular Probes) and Hoechst (Thermo Scientific) were added to the medium to stain the mitochondria and nuclei, following the manufacturer's procedures. Cells were photographed using a 63× oil or 20× objective lens."}, "[6]": {"tested_on": "H838 cells", "assay": "Dependence of mitochondrial accumulation on mitochondrial membrane potential", "assay_type": "cell-based", "method": "To examine whether the mitochondrial membrane potential (ΔΨm) causes the accumulation of delocalized lipophilic cation compounds in mitochondria, H838 cells were preincubated with medium containing high concentrations of K^+ ions (i.e. 137 mM), to depolarize the mitochondrial membrane, or low concentrations of K^+ ions (i.e. 3 mM). Next, 3 μM of compound (3) was added and the cells were incubated for 30 minutes."}, "[7]": {"tested_on": "bladder cancer T24 cells", "assay": "In vitro cytotoxicity, T24", "assay_type": "cell-based", "conditions": "Homo sapiens, T-24, 72 h, 3 days", "method": "as §1"}, "[8]": {"tested_on": "non-small cell lung cancer (NSCLC) H838 cells", "assay": "In vitro cytotoxicity, H838", "assay_type": "cell-based", "conditions": "Homo sapiens, NCI-H838, 72 h, 3 days", "method": "as §1"}, "[9]": {"tested_on": "H2228 cell line", "assay": "In vitro cytotoxicity, H2228", "assay_type": "cell-based"}, "[10]": {"tested_on": "NSCLC cell lines HCC827, H838, HCC4006, H1693, H2030, H2228, A549, H1437, H1944", "assay": "Cytotoxicity in nine lung cancer cell lines", "assay_type": "cell-based", "conditions": "all nine NSCLC cell lines"}, "[11]": {"tested_on": "subcutaneous HCC827 tumor", "assay": "In vivo fluorescent imaging of mice bearing HCC827 tumors", "set-up": "species or system nude mice", "conditions": "15 mg/kg intravenous", "method": "In vivo studies on the effect of compound (3) on the tumor growth and body mass of a mouse model were conducted. Female athymic nude mice (nu/nu) from 4-6 weeks old were obtained from Charles River Laboratories (Boston, MA, USA) and kept under sterile conditions. 5×10^6 human lung adenocarcinoma HCC827 cells suspended in 150 μL of PBS were inoculated subcutaneously in the right shoulder of the nude mice. When the tumors reached 3˜5 mm in diameter, the tumor bearing mice were administered i.v. with compound (3) (dissolved in 150 μL PBS, with 2 μL DMSO) at 15 mg/kg on days 1, 3, 5, 7, 9, 11, 13, 15, 17, 19, 21. Correspondingly, untreated tumor-bearing mice serving as controls were administered i.v. with 150 μL 1×PBS pH 7.4 (with 2 μL DMSO) on the same days as the treated mice. Ten mice were used for each group. Length and width of the elliptical tumors were measured by Vernier caliper after every intravenous injection. Modified ellipsoid formula ½ (Length×Width^2) was used to calculate the tumor size. The tumor growth was calculated with the ratio of final volume (FV) minus initial volume (IV) to initial volume (IV). In vivo fluorescent imaging was taken 40 minutes and 2 hours after the injection of compound (3) 15 mg/kg. IVIS spectrum instrument was used. Excitation wavelength was set at 450 nm. Collection wavelength was set at 550 nm, using a 3s acquisition time. […]"}, "[12]": {"tested_on": "human lung adenocarcinoma HCC827 xenograft", "assay": "Tumor growth and body weight in the HCC827 xenograft", "assay_type": "in vivo, nude mice", "method": "In vivo studies on the effect of compound (3) on the tumor growth and body mass of a mouse model were conducted. Female athymic nude mice (nu/nu) from 4-6 weeks old were obtained from Charles River Laboratories (Boston, MA, USA) and kept under sterile conditions. 5×10^6 human lung adenocarcinoma HCC827 cells suspended in 150 μL of PBS were inoculated subcutaneously in the right shoulder of the nude mice. When the tumors reached 3˜5 mm in diameter, the tumor bearing mice were administered i.v. with compound (3) (dissolved in 150 μL PBS, with 2 μL DMSO) at 15 mg/kg on days 1, 3, 5, 7, 9, 11, 13, 15, 17, 19, 21. Correspondingly, untreated tumor-bearing mice serving as controls were administered i.v. with 150 μL 1×PBS pH 7.4 (with 2 μL DMSO) on the same days as the treated mice. Ten mice were used for each group. Length and width of the elliptical tumors were measured by Vernier caliper after every intravenous injection. Modified ellipsoid formula ½ (Length×Width^2) was used to calculate the tumor size. The tumor growth was calculated with the ratio of final volume (FV) minus initial volume (IV) to initial volume (IV)."}, "[13]": {"tested_on": "carcinoma cell", "assay": "Flow cytometry of carcinoma cell growth", "assay_type": "cell-based"}}}
{"molecule": "Cn1cc(/C=C/c2cc[n+](C)cc2)c2cc(F)ccc21", "note": "[(1)]", "values": [{"measurement": "quantum yield", "setting": "[1]", "value": "around 12%"}, {"measurement": "photostability", "setting": "[2]", "value": "bleached relatively easily"}]}
{"molecule": "C[n+]1ccc(/C=C/c2c[nH]c3c2ccc2ccccc23)cc1", "note": "[(2)]", "values": [{"measurement": "quantum yield", "setting": "[1]", "value": "around 12%"}, {"measurement": "IC50", "setting": "[3]", "value": "360 to 6200", "unit": "nM"}]}
{"molecule": "C[n+]1ccc(/C=C/c2c[nH]c3ccc(Br)cc23)cc1", "note": "[(5)]", "values": [{"measurement": "absorption peak / absorption maxima", "setting": "[4]", "value": "about 450 nm"}, {"measurement": "IC50", "setting": "[3]", "value": "360 to 6200", "unit": "nM"}]}
{"molecule": "C[n+]1ccc(/C=C/c2c[nH]c3ccc(F)cc23)cc1", "note": "[(7)]", "values": [{"measurement": "quantum yield", "setting": "[1]", "value": "around 20%"}]}
{"molecule": "C[n+]1ccc(/C=C/c2c(Cl)[nH]c3ccccc23)cc1", "note": "[(8)]", "values": [{"measurement": "photostability", "setting": "[2]", "value": "bleached relatively easily"}]}
{"molecule": "Cc1ccc2[nH]c(C)c(/C=C/c3cc[n+](C)cc3)c2c1", "note": "[(9)]", "values": [{"measurement": "absorption peak / absorption maxima", "setting": "[4]", "value": "about 450 nm"}, {"measurement": "quantum yield", "setting": "[1]", "value": "around 20%"}, {"measurement": "photostability", "setting": "[2]", "value": "bleached relatively easily"}]}
{"molecule": "Cc1cc(Br)cc2c(/C=C/c3cc[n+](C)cc3)c[nH]c12", "note": "[Compound (3)]", "values": [{"measurement": "quantum yield", "setting": "[1]", "value": "around 20%"}, {"measurement": "colocalization with MitoTrack", "setting": "[5]", "value": "colocalization"}, {"measurement": "accumulation in the mitochondria, low K+", "setting": "[6]; 3 μM, 30 minutes, preincubation with 3 mM K+", "value": "more accumulation"}, {"measurement": "accumulation in the mitochondria, high K+", "setting": "[6]; 3 μM, 30 minutes, preincubation with 137 mM K+", "value": "less accumulation"}, {"measurement": "mitochondrial staining after addition of FCCP", "setting": "[6]; FCCP added to the cells", "value": "immediately decayed and diffused into the cytoplasm"}, {"measurement": "IC50", "setting": "[3]", "value": "360 to 6200", "unit": "nM"}, {"measurement": "IC50", "setting": "[7]", "value": 820, "unit": "nM"}, {"measurement": "IC50", "setting": "[8]", "value": 360, "unit": "nM"}, {"measurement": "anti-cancer cell to anti-normal cell ratio", "setting": "[9]; H2228 against 3T3", "value": "around 225"}, {"measurement": "IC50", "setting": "[9]; Homo sapiens, NCI-H2228, H2228 cell line", "value": 48.9, "unit": "nM"}, {"measurement": "ATCA (antitumor activity) in NSCLC cell lines", "setting": "[10]", "value": "impressively high ATCA"}, {"measurement": "tumor to background ratio", "setting": "[11]; 2 h post injection", "value": "~2"}, {"measurement": "organ accumulation", "setting": "[11]; compared with liver, spleen, heart, lung, and brain", "value": "Tumor, kidney, bone, stomach, bowel, pancreas and skin accumulated more"}, {"measurement": "tumor volume compared to PBS treated group", "setting": "[12]; 15 mg/kg i.v. on days 1 to 21 every other day, 21 days PI, p=0.0426", "value": "decreased dramatically"}, {"measurement": "bodyweight between control and treated group", "setting": "[12]; 15 mg/kg i.v., p=0.477", "value": "no significant difference"}, {"measurement": "tumor pathologic section H&E staining", "setting": "[12]; HCC827 tumor of treated mice", "value": "caused tumor inflammatory cell infiltration, fibrous tissue proliferation, and cell apoptosis"}, {"measurement": "carcinoma cell growth by flow cytometry", "setting": "[13]", "value": "inhibited carcinoma cell growth in a time-dependent manner"}]}
{"molecule": "C[n+]1ccc(/C=C/c2c[nH]c3ccc(C#N)cc23)cc1", "note": "[Compound (4)]", "values": [{"measurement": "quantum yield", "setting": "[1]", "value": 49.1, "unit": "%"}, {"measurement": "IC50", "setting": "[3]", "value": "360 to 6200", "unit": "nM"}]}
